Numbered stars: 1 amine (or outer) side, 2 acyl side, 3 side chain; on linkers, the order of the positions; unused ones are H or OH. Square brackets hold non-standard residues; d marks the D form. Peptide text beside a SMILES is read from it. Ala(1H-tetrazol-5-yl) = N[C@@H](Cc1nnn[nH]1)C(=O)O; X1 = O=C([C@H](CCc1nnn[nH]1)N[*:1])[*:2]; Nle = CCCC[C@H](N)C(=O)O
T1: PAC1R (Homo sapiens, UniProt P41586)
T1 construct: host or cells: CHO-K1
T1 sequence (P41586 21-468): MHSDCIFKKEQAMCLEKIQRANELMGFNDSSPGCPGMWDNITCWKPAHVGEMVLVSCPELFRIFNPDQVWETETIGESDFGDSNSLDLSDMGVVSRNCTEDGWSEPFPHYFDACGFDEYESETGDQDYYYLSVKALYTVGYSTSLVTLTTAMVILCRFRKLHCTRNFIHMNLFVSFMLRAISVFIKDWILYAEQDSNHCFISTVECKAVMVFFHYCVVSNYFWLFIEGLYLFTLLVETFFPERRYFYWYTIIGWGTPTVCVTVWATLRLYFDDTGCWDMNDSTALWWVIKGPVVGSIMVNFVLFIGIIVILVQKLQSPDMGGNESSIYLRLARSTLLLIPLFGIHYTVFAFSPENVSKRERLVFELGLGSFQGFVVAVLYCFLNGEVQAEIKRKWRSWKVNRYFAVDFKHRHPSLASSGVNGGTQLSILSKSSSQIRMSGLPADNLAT

T2: VPAC1R (Homo sapiens, UniProt P32241)
T2 construct: host or cells: CHO-K1
T2 sequence (P32241 31-457): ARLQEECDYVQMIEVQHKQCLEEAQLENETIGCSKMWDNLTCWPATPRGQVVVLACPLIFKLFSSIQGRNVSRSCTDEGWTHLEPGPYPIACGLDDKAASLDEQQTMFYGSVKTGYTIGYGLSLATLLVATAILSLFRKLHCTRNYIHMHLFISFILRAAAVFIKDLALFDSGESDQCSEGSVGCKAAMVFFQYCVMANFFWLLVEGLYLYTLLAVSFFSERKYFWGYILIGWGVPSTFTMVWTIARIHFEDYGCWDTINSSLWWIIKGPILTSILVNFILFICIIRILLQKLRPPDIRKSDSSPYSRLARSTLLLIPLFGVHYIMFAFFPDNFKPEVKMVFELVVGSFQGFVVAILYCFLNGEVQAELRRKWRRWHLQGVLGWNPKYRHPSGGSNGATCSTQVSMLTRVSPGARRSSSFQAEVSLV

T3: PAC1 receptor (UniProt P41586 21-468, limits assumed)
T3 sequence (looked up): T1 sequence (P41586 21-468)

T4: VPAC1 receptor (UniProt P32241 31-457, limits assumed)
T4 sequence (looked up): T2 sequence (P32241 31-457)

B1: Peptide 34 (peptide)
peptide: Ac-HS[Ala(1H-tetrazol-5-yl)]AIFT[Ala(1H-tetrazol-5-yl)]SYSRYRKAAAVKKYLAAVL-NH2
SMILES: CC[C@H](C)[C@H](NC(=O)[C@H](C)NC(=O)[C@H](Cc1nnn[nH]1)NC(=O)[C@H](CO)NC(=O)[C@H](Cc1c[nH]cn1)NC(C)=O)C(=O)N[C@@H](Cc1ccccc1)C(=O)N[C@H](C(=O)N[C@@H](Cc1nnn[nH]1)C(=O)N[C@@H](CO)C(=O)N[C@@H](Cc1ccc(O)cc1)C(=O)N[C@@H](CO)C(=O)N[C@@H](CCCNC(=N)N)C(=O)N[C@@H](Cc1ccc(O)cc1)C(=O)N[C@@H](CCCNC(=N)N)C(=O)N[C@@H](CCCCN)C(=O)N[C@@H](C)C(=O)N[C@@H](C)C(=O)N[C@@H](C)C(=O)N[C@H](C(=O)N[C@@H](CCCCN)C(=O)N[C@@H](CCCCN)C(=O)N[C@@H](Cc1ccc(O)cc1)C(=O)N[C@@H](CC(C)C)C(=O)N[C@@H](C)C(=O)N[C@@H](C)C(=O)N[C@H](C(=O)N[C@@H](CC(C)C)C(N)=O)C(C)C)C(C)C)[C@@H](C)O

Legend:
PAC1R = biological target: T1, PAC1R; assay: cAMP assay in PAC1R high-expressing CHO-K1 cell line; format: cell-based; settings: cAMP inducing effect, CHO-K1 PAC1R high-expressing cells
Description: (§1) The cells were cultured for 18 to 24 hours at 37° C. in a 5% C02 incubator, adhering the cells to the plate. […] A 5-fold dilution series was then prepared with the same Cell assay buffer and used in an assay. The cAMP assay was carried out using a Hit Hunter cAMP Assay for Biologics kit (product of DiscoveRx, Cat. No. 90-0075LM25), according to the included kit instructions. […] Next, the culture medium was removed from the CHO-K1 cell culture plate, washing was performed with PBS, and the peptide-cAMP antibody liquid mixtures were added to the cells and incubated for 30 minutes under a 5% CO2 atmosphere at 37° C. A working detection solution was then added and the culture plate was shielded from light with aluminum foil and incubated at 25° C. for 1 hour. After incubation, Solution A was added and the culture plate was shielded from light with aluminum foil and then incubated at 25° C. for 3 hours. […] The obtained value for the Relative Luminescence Unit (RLU) was analyzed with GraphPad Prism Ver 6.05 (product of Graph Pad) and the EC50 value was calculated for each peptide. […] FIG. 2 and Table 11. […] A 5-fold dilution series was then prepared with the same Cell assay buffer and used in an assay. […] A 5-fold dilution series was then prepared with the same Cell assay buffer and used in an assay.

VPAC1R = biological target: T2, VPAC1R; assay: cAMP assay in VPAC1R high-expressing CHO-K1 cell line; format: cell-based; settings: Table 12; cAMP inducing effect, CHO-K1 VPAC1R high-expressing cells
Description: as §1

[1] = Peptide stability test, Tris buffer (pH 7.0), 60° C. storage, HPLC remaining rate; format: physicochemical; settings: Table 7; 100 μM in Tris buffer pH 7.0
How it was run: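 Peptides at 100 μM in Tris buffer (pH 7.0) stored 1 or 2 weeks at 60° C.; unstored sample kept at −30° C. as initial reference. Remaining peptide quantified by reversed-phase HPLC at 220 nm (formic acid/acetonitrile gradient, 40° C. column), as water-corrected remaining rate.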

PAC1 receptor = biological target: T3, PAC1 receptor; assay: cell-based or functional assay
VPAC1 receptor = biological target: T4, VPAC1 receptor; assay: cell-based or functional assay

Molecule | EC50 (VPAC1R) [nM] | remaining rate after correction for water, 60° C., 1 week preservation [1] [%] | remaining rate after correction for water, 60° C., 2 weeks preservation [1] [%] | also measured
CCCC[C@H](NC(=O)[C@H](CCC(N)=O)NC(=O)[C@H](CCCCN)NC(=O)[C@H](CCCNC(=N)N)NC(=O)[C@H](Cc1ccc(O)cc1)NC(=O)[C@H](CCCNC(=N)N)NC(=O)[C@H](CO)NC(=O)[C@H](Cc1ccc(O)cc1)NC(=O)[C@H](CO)NC(=O)[C@H](Cc1nnn[nH]1)NC(=O)[C@@H](NC(=O)[C@H](Cc1ccccc1)NC(=O)[C@@H](NC(=O)CNC(=O)[C@H](Cc1nnn[nH]1)NC(=O)[C@H](CO)NC(=O)[C@@H](N)Cc1c[nH]cn1)[C@@H](C)CC)[C@@H](C)O)C(=O)N[C@@H](C)C(=O)N[C@H](C(=O)N[C@@H](CCCCN)C(=O)N[C@@H](CCCCN)C(=O)N[C@@H](Cc1ccc(O)cc1)C(=O)N[C@@H](CC(C)C)C(=O)N[C@@H](C)C(=O)N[C@@H](C)C(=O)N[C@H](C(=O)N[C@@H](CC(C)C)C(N)=O)C(C)C)C(C)C [Peptide 6] (H-HS[Ala(1H-tetrazol-5-yl)]GIFT[Ala(1H-tetrazol-5-yl)]SYSRYRKQ[Nle]AVKKYLAAVL-NH2) |  |  |  | EC50 (PAC1R; Table 11): 0.079 nM
CC[C@H](C)[C@H](NC(=O)CNC(=O)[C@H](Cc1nnn[nH]1)NC(=O)[C@H](CO)NC(=O)[C@H](Cc1c[nH]cn1)NC(C)=O)C(=O)N[C@@H](Cc1ccccc1)C(=O)N[C@H](C(=O)N[C@@H](Cc1nnn[nH]1)C(=O)N[C@@H](CO)C(=O)N[C@@H](Cc1ccc(O)cc1)C(=O)N[C@@H](CO)C(=O)N[C@@H](CCCNC(=N)N)C(=O)N[C@@H](Cc1ccc(O)cc1)C(=O)N[C@@H](CCCNC(=N)N)C(=O)N[C@@H](CCCCN)C(=O)N[C@@H](CCc1nnn[nH]1)C(=O)N[C@@H](CC(C)C)C(=O)N[C@@H](C)C(=O)N[C@H](C(=O)N[C@@H](CCCCN)C(=O)N[C@@H](CCCCN)C(=O)N[C@@H](Cc1ccc(O)cc1)C(=O)N[C@@H](CC(C)C)C(=O)N[C@@H](C)C(=O)N[C@@H](C)C(=O)N[C@H](C(=O)N[C@@H](CC(C)C)C(N)=O)C(C)C)C(C)C)[C@@H](C)O [Peptide 13] (Ac-HS[Ala(1H-tetrazol-5-yl)]GIFT[Ala(1H-tetrazol-5-yl)]SYSRYRK[X1]LAVKKYLAAVL-NH2) | 0.072 | 97.4 | 95.4 | 
CC[C@H](C)[C@H](NC(=O)CNC(=O)[C@H](Cc1nnn[nH]1)NC(=O)[C@H](CO)NC(=O)[C@H](Cc1c[nH]cn1)NC(C)=O)C(=O)N[C@@H](Cc1ccccc1)C(=O)N[C@H](C(=O)N[C@@H](Cc1nnn[nH]1)C(=O)N[C@@H](C)C(=O)N[C@@H](Cc1ccc(O)cc1)C(=O)N[C@@H](CO)C(=O)N[C@@H](CCCNC(=N)N)C(=O)N[C@@H](Cc1ccc(O)cc1)C(=O)N[C@@H](CCCNC(=N)N)C(=O)N[C@@H](CCCCN)C(=O)N[C@@H](CCC(N)=O)C(=O)N[C@@H](CC(C)C)C(=O)N[C@@H](C)C(=O)N[C@H](C(=O)N[C@@H](CCCCN)C(=O)N[C@@H](CCCCN)C(=O)N[C@@H](Cc1ccc(O)cc1)C(=O)N[C@@H](CC(C)C)C(=O)N[C@@H](C)C(=O)N[C@@H](C)C(=O)N[C@H](C(=O)N[C@@H](CC(C)C)C(N)=O)C(C)C)C(C)C)[C@@H](C)O [Peptide 15] (Ac-HS[Ala(1H-tetrazol-5-yl)]GIFT[Ala(1H-tetrazol-5-yl)]AYSRYRKQLAVKKYLAAVL-NH2) |  | 97.3 | 94.9 | EC50 (PAC1R; Table 12): 0.061 nM
CC[C@H](C)[C@H](NC(=O)CNC(=O)[C@H](Cc1nnn[nH]1)NC(=O)[C@H](CO)NC(=O)[C@H](Cc1c[nH]cn1)NC(C)=O)C(=O)N[C@@H](Cc1ccccc1)C(=O)N[C@H](C(=O)N[C@@H](Cc1nnn[nH]1)C(=O)N[C@@H](CO)C(=O)N[C@@H](Cc1ccc(O)cc1)C(=O)N[C@@H](CO)C(=O)N[C@@H](CCCNC(=N)N)C(=O)N[C@@H](Cc1ccc(O)cc1)C(=O)N[C@@H](CCCNC(=N)N)C(=O)N[C@@H](CCCCN)C(=O)N[C@@H](CCC(N)=O)C(=O)N[C@@H](CC(C)C)C(=O)N[C@@H](C)C(=O)N[C@@H](C)C(=O)N[C@@H](CCCCN)C(=O)N[C@@H](CCCCN)C(=O)N[C@@H](Cc1ccc(O)cc1)C(=O)N[C@@H](CC(C)C)C(=O)N[C@@H](C)C(=O)N[C@@H](C)C(=O)N[C@H](C(=O)N[C@@H](CC(C)C)C(N)=O)C(C)C)[C@@H](C)O [Peptide 19] (Ac-HS[Ala(1H-tetrazol-5-yl)]GIFT[Ala(1H-tetrazol-5-yl)]SYSRYRKQLAAKKYLAAVL-NH2) | 0.044 | 95.8 | 92.7 | 
B1 |  |  |  | EC50 (PAC1R), cAMP inducing effect (PAC1 receptor): 0.21 nM; EC50 (VPAC1R), cAMP inducing effect (VPAC1 receptor): 0.089 nM
